# Activity calls are given as the source filed them. No rule for the calls is given here.
# Test system: Jurkat NF-kB reporter, luminescence
# Test: NF-kB reporter inhibition in Jurkat cells, dose response, selectivity assay for B-cell receptor NF-kB inhibitor project, cell-based, luminescence (AID 489006)
row,SMILES,IC50
1,Cc1ccc(C(=O)OCC(=O)N(CC(C)C)c2c(N)n(Cc3ccccc3)c(=O)[nH]c2=O)o1,> 80 µM (inactive)
2,COc1ccc(/C=C2\SC(=S)N(CCC(=O)Nc3ccc(C(=O)O)cc3)C2=O)cc1,> 80 µM (inactive)
3,COc1ccc(-c2ccoc2)cc1[C@H]1[C@H]2C=CC[C@@H](C)[C@@H]2C(=O)N1Cc1ccccc1,50.4 µM (inactive)
4,CC(C)C[C@@H](N)c1nnc(SCC(=O)c2ccc(Cl)cc2)o1,11.3 µM
5,Cc1ccc(C(=O)CSc2nnc(COc3ccccc3)o2)cc1,> 80 µM (inactive)
6,Cc1ccc(C(=O)CSc2nnc(COc3cccc(C)c3)o2)cc1,> 80 µM (inactive)
7,COc1cc(OC)cc(-c2cc3nc(C)c(CCC(=O)NCc4ccccc4)c(C)n3n2)c1,2.75 µM
8,O=C(CN1C(=O)c2ccccc2S1(=O)=O)c1ccc(Cl)cc1Cl,0.78 µM
9,COC(=O)CSc1nnc(-c2sc3ccccc3c2Cl)o1,3.43 µM
10,Cc1c(CC(=O)NCCCC(=O)O)c(=O)oc2cc3c(cc12)CCC(C)(C)O3,4.17 µM
11,Cn1c(=O)c2c(SCC(=O)Nc3ccccc3F)nc(-c3ccccc3F)nc2n(C)c1=O,> 80 µM (inactive)
12,Cc1cc(C)cc(OCc2nnc(SCC(=O)c3ccccc3)o2)c1,> 80 µM (inactive)
13,Cn1c(=O)n(C)c2cc(C(=O)Nc3ccc4c(c3)OCO4)ccc21,> 80 µM (inactive)
14,O=C(O)COc1ccc(-c2nccc(-c3ccccn3)n2)cc1,0.22 µM
15,COc1cccc(/C=C2/SC(=S)N(CCCC(=O)Nc3ccc(O)cc3)C2=O)c1,29.5 µM (inactive)
16,COc1ccc(C(=O)N/N=C/c2ccc(OC)c(CN3CCCc4ccccc43)c2)cc1,> 80 µM (inactive)
17,Cc1ccc(Nc2nc(N/N=C\c3ccc4c(c3)OCO4)nc(N3CCOCC3)n2)cc1,70.3 µM (inactive)
18,COc1ccc(-c2noc(CCCC(=O)O)n2)cc1,1.4 µM
19,O=C(NCCC1CCCCN1S(=O)(=O)c1ccc(Cl)cc1)C(=O)NCc1ccncc1 (stereo not drawn),> 80 µM (inactive)
20,Cc1noc(C)c1CSc1nc2[nH]ncc2c(=O)n1-c1ccccc1,34.3 µM (inactive)
21,Cc1[nH]c2ccccc2c1/C=N/Nc1nc(Nc2ccccc2)nc(N2CCOCC2)n1,35.2 µM (inactive)
22,O=C(CCl)Nc1ccccc1Sc1ccccc1,14.1 µM
23,O=C(CN1C(=O)c2ccccc2S1(=O)=O)N1CCc2ccccc21,1.76 µM
24,O=C(Oc1cccc(/C=N/Nc2nc(Nc3ccccc3)nc(N3CCOCC3)n2)c1)c1ccco1,> 80 µM (inactive)
25,Cc1[nH]c2ccccc2c1/C=N/Nc1nc(Nc2ccc(F)cc2)nc(N2CCOCC2)n1,20.9 µM (inactive)

row,SMILES,IC50
1,CCNc1nc(C)c2cc(Br)c(=O)n(CC)c2n1,7.89 µM
2,O=C(O)CCn1c(O)c(C=C2N=c3ccccc3=N2)sc1=S,1.46 µM
3,Cc1cc(C)c2nc(NC(=O)C3CSC4(C)CCC(=O)N34)sc2c1 (stereo not drawn),76.5 µM (inactive)
4,Cn1c(=O)n(C)c2cc(NC(=O)CSc3nnc(-c4ccccc4O)n3-c3ccccc3)ccc21,50.1 µM (inactive)
5,CCC(=O)N(C1=C(NC)C(=O)c2ccccc2C1=O)C(C)C,45.8 µM (inactive)
6,COc1ccc(C(=O)Nc2ccc(OC)c([N+](=O)[O-])c2)cc1Br,> 80 µM (inactive)
7,CC(C)C(c1nnnn1Cc1ccccc1)N(Cc1ccco1)Cc1cccs1 (stereo not drawn),73.6 µM (inactive)
8,Cc1c(CCC(=O)N2CCC[C@H]2C(=O)O)c(=O)oc2cc3oc4c(c3cc12)CCCC4,> 80 µM (inactive)
9,CC(=O)c1cn(CCOc2cc(C)ccc2C)c2ccccc12,> 80 µM (inactive)
10,CCC(C)N1C(=O)/C(=C/c2c(NCCCOC(C)C)nc3c(C)cccn3c2=O)SC1=S (stereo not drawn),> 80 µM (inactive)
11,CC(C)(C)c1ccc(-c2noc(CCC(=O)NCC3CCCO3)n2)cc1 (stereo not drawn),0.23 µM
12,Cc1cc(OCC(=O)N2CCC(C(N)=O)CC2)c2c3c(c(=O)oc2c1)CCCC3,> 80 µM (inactive)
13,Cn1c(=O)n(C)c2cc(/C=C3/NC(=O)N(Cc4ccccc4)C3=O)ccc21,> 80 µM (inactive)
14,CCCC(=O)Nc1ccc(Sc2ccc([N+](=O)[O-])cc2)cc1,15.9 µM
15,COc1ccc(NS(=O)(=O)c2cc(NC(=O)c3cc(=O)c4ccccc4o3)ccc2OC)cc1,> 80 µM (inactive)
16,CC1CCN(C(=O)CCCOc2cc(=O)n(C)c3ccccc23)CC1,> 80 µM (inactive)
17,Cc1ccccc1-n1c(SCc2c(C)noc2C)nnc1-c1c[nH]c2ccccc12,> 80 µM (inactive)
18,CCc1ccc(/C=C2/SC(=S)N(CCC(=O)Nc3cccc(C(=O)O)c3)C2=O)cc1,> 80 µM (inactive)
19,Cc1csc(NC(=O)/C=C/c2ccc3c(c2)OCO3)n1,> 80 µM (inactive)
20,COc1cc(C[C@@H]2C(=O)OC[C@H]2Cc2ccc(OC)c(OC)c2)ccc1O,> 80 µM (inactive)
21,Cc1ccc(-c2cc(C(=O)NCCCN3CCOCC3)no2)cc1,15.2 µM
22,CC(C)(O)/C=C/C(=O)[C@](C)(O)C1[C@H](O)C[C@@]2(C)C3CC=C4C(C[C@H](O)[C@@H](O)C4(C)C)[C@]3(C)C(=O)C[C@]12C (stereo partly drawn),31.3 µM (inactive)
23,Cc1cc(OC(=O)c2ccccc2Cl)cc(=O)n1C,> 80 µM (inactive)
24,COc1ccc(/C=C2/SC(=S)N(CCCC(=O)Nc3cccc(O)c3)C2=O)cc1,> 80 µM (inactive)
25,COc1cc(-c2cc(=O)c3c(O)c(OC)c(OC)c(OC)c3o2)cc(OC)c1OC,> 80 µM (inactive)

row,SMILES,IC50
1,C=CCn1c(O)c(C(CC)=NC(C)c2ccccc2)c(=O)[nH]c1=O (stereo not drawn),51.3 µM (inactive)
2,O=C(CCCN1C(=O)/C(=C/c2ccccc2Cl)SC1=S)Nc1cccnc1,6.58 µM
3,CCN1CCN(C(=O)CSc2cc(=O)n(CC)c3ccccc23)CC1,> 80 µM (inactive)
4,CCOC(=O)c1nn(-c2ccccc2)c(C#N)c1NC(=O)c1nn(CC)cc1Br,> 80 µM (inactive)
5,Cc1ccc(C(=O)CSc2nnc(COc3cc(C)cc(C)c3)o2)cc1,> 80 µM (inactive)
6,O=C(O)CCSc1ncnc2sc(-c3ccccc3)cc12,1.07 µM
7,CCCS(=O)(=O)Nc1cccc(-c2ccc3nnc(C)n3n2)c1,> 80 µM (inactive)
8,c1ccc(CCNc2ncnc3ccccc23)cc1,64.2 µM (inactive)
9,CCN(CC(=O)Nc1c(F)cccc1F)C(=O)c1cc([N+](=O)[O-])ccc1N1CCCCC1,> 80 µM (inactive)
10,COC(=O)c1[nH]c2ccc(C)cc2c1NC(=O)Nc1ccccc1OC,55.2 µM (inactive)
11,CCN(CC)C(=O)c1ccc(S(=O)(=O)Cc2ccc(C)cc2)c([N+](=O)[O-])c1,7.08 µM
12,COc1ccc(-n2nnnc2S(=O)(=O)CC(=O)N2CCCCC2)cc1,2.25 µM
13,O=C(c1cc2nc(-c3ccccc3)cc(-c3ccccc3)n2n1)N1CCN(C(=O)c2ccco2)CC1,31 µM (inactive)
14,CCOC(=O)c1cc2c(=O)n3ccccc3nc2n(CC(C)C)c1=NC(=O)c1c(-c2c(F)cccc2Cl)noc1C,> 80 µM (inactive)
15,CCN(CC)c1ccc2cc(NC(=O)CCC(=O)O)c(=O)oc2c1,0.46 µM
16,Cc1c(NC(=O)/C=C/c2cn(-c3ccccc3)nc2-c2ccccc2)c(=O)n(-c2ccccc2)n1C,> 80 µM (inactive)
17,COc1ccc(C=C(C(C)=O)C(C)=O)cc1OC,6.23 µM
18,COc1ccc(OCc2cccc(C(=O)NN)c2)cc1,5.14 µM
19,Cc1ccc(Nc2nc(N3CCOCC3)nc(N3CCOCC3)n2)cc1C,> 80 µM (inactive)
20,COc1ccc(NC(=S)NCc2ccccc2)c(OC)c1,> 80 µM (inactive)
21,Cc1ccc(-c2nn3c(C)nnc3c3ccccc23)cc1S(=O)(=O)NCCN1CCOCC1,> 80 µM (inactive)
22,CCOC(=O)CNC(=O)CSc1nnc(NC(=O)c2ccc(C)cc2)s1,5.88 µM
23,COc1ccc(CC(=O)Nc2cccc(-c3ccc4nnc(C)n4n3)c2)cc1,> 80 µM (inactive)
24,Cc1ccc(/C=C2\SC(=S)N(CCCC(=O)NC3CCCC3)C2=O)cc1,0.73 µM
25,COc1cc(-c2nc3ccc(N4CCN(C)CC4)cc3[nH]2)cc(OC)c1OC,> 80 µM (inactive)

row,SMILES,IC50
1,COc1ccc(OCc2cccc(C(=O)Nn3cc([N+](=O)[O-])cn3)c2)cc1,1.85 µM
2,N=c1c2c(n(Cc3ccc(Cl)cc3Cl)c3c1CCC3)CCCC2,16.2 µM
3,COc1ccc(NC(=O)c2cc(-c3ccccn3)nc3ccccc23)cc1S(=O)(=O)N(C)C,26.6 µM (inactive)
4,O=C(Nc1nc(-c2ccccc2)cs1)c1ccccc1NS(=O)(=O)c1ccc(F)cc1,19 µM
5,O=S(=O)(NCc1ccncc1)c1ccc(Br)s1,> 80 µM (inactive)
6,CC1=CC(C)(C)Nc2ccc(OC(=O)c3ccco3)cc21,1.4 µM
7,Cc1ccccc1-c1cc(C(=O)Nc2sc(C(=O)OC(C)C)c(C)c2C#N)c2ccccc2n1,> 80 µM (inactive)
8,COc1ccc(S(=O)(=O)Nc2cc3c(C(C)=O)c(C)oc3c3ccccc23)cc1,> 80 µM (inactive)
9,CC(C)C(=O)Nc1ccc(NC(=O)c2ccc3c(c2)OCO3)cc1,> 80 µM (inactive)
10,COC(=O)c1cc(NC(=O)Nc2cc(OC)ccc2OC)cc(C(=O)OC)c1,63.8 µM (inactive)
11,Cc1ccc(/C=C2\SC(=S)N(CCCC(=O)Nc3ccccn3)C2=O)cc1,0.76 µM
12,COCCCn1c(=O)/c(=C\c2cccc(OC)c2OC)s/c1=C(/C#N)C(=O)Nc1ccc(C(=O)O)cc1,> 80 µM (inactive)
13,COc1ccc(C(=O)n2nc(-c3ccc(Cl)cc3)nc2N)cc1OC,2.9 µM
14,CC(C)c1ccc(/C=C2\SC(=S)N(CCC(=O)NCCCn3ccnc3)C2=O)cc1,2.64 µM
15,COc1ccc(/C=C2\SC(=O)N(CCCC(=O)Nc3ccc(C(=O)O)cc3)C2=O)cc1OC,29.4 µM (inactive)
16,Cc1ccc(/C=C2\SC(=S)N(CCC(=O)NNC(=O)c3ccncc3)C2=O)cc1,> 80 µM (inactive)
17,O=C(Cc1cccc2ccccc12)Nc1ccc(-c2cc3ccccc3oc2=O)cc1,14.8 µM
18,Cc1c(CCC(=O)N2CCC(C(=O)O)CC2)c(=O)oc2cc3oc4c(c3cc12)CCCC4,> 80 µM (inactive)
19,COc1ccc(C2=NCc3nnc(C)n3-c3ccc(Cl)cc32)cc1Cl,36.4 µM (inactive)
20,CCc1ccc(/C=C2\SC(=S)N(CCC(=O)Nc3cc(C)on3)C2=O)cc1,4.06 µM
21,Cc1ccc(C(=O)C[n+]2cc(-c3ccc(C)cc3)n3c2CCCCC3)cc1,8.37 µM
22,CC(C)(C)c1ccc(-c2noc(CCC(N)=O)n2)cc1,< 0.16 µM
23,CCN1C(=O)c2cccc3c(S(=O)(=O)Nc4ccccc4)ccc1c23,48.9 µM (inactive)
